Read-outs that look alike come from different tables or passages of the source.
Test system: M. tuberculosis H37Rv-GFP
Experiment: microbe, parasite or virus in culture
Type: cell-based, Mycobacterium tuberculosis
Details: Mycobacterium tuberculosis, H37RV, Macrophage
[1] = confirmation, 20 uM, intracellular, read-out: QIM Confirm % Inhibition 20 uM
[2] = primary screen, 20 μM, intracellular, read-out: Primary QIM % Inhibition
[3] = read-out: Primary QIM % Inhibition
[4] = read-out: QIM Confirm % Inhibition 20 uM

Structure (SMILES)	inhibition at 20 µM [1]	inhibition at 20 µM [2]	inhibition at 20 µM [3]	inhibition at 20 µM [4]
O=[N+]([O-])c1ccc(/C=N/N(CCO)C2=NS(=O)(=O)c3ccccc32)o1 [IPK 000 222 32]	63.2%	16.2%	–	–
Cc1ccc(NC(=O)c2ccc(F)cc2)cc1Cl [IPK 000 205 22]	69.7%	85.1%	–	–
O=C(c1cc([N+](=O)[O-])cc([N+](=O)[O-])c1)N1CCc2ccccc2C1 [IPK 000 046 86]	–	–	26.6%	40.8%
CC(C)CCNC(=O)c1cccc(Cl)c1 [IPK 000 210 79]	28.7%	77.2%	–	–
O=C(Oc1cccc2cccnc12)c1ccccc1 [IPK 000 251 49]	–	–	27%	15%
Cc1ccccc1C(=O)NNC(=O)c1cc([N+](=O)[O-])cc([N+](=O)[O-])c1 [IPK 000 169 30]	–	–	56.2%	73.7%
C#C/C(=C/c1ccc(-c2ccc(N3CCCCC3)c([N+](=O)[O-])c2)o1)C(=O)OCC [IPK 000 229 72]	90.7%	69.4%	–	–
O=C(CCC(=O)Nc1ccccc1)N/N=C/c1ccc([N+](=O)[O-])o1 [IPK 000 262 39]	29.5%	2.1%	–	–
CC(C)CNC(=O)c1cc([N+](=O)[O-])cc([N+](=O)[O-])c1 [IPK 000 046 78]	–	–	73.3%	88.9%
Cc1ccc(NC(=O)c2ccc(CSc3ccccn3)cc2)c(C)c1 [IPK 000 125 22]	82%	75.4%	–	–
O=c1c(/C=N/Cc2ccco2)c(NCc2ccco2)nc2ccccn12 [IPK 000 130 26]	29.9%	66.3%	–	–
O=C(NC12CC3CC(CC(C3)C1)C2)N1CCN(c2ccccc2)CC1 [IPK 000 249 84]	80.9%	78.2%	–	–
CCOc1cc(/C=N\NC(=O)COc2ccc(C(C)C)cc2)ccc1O [IPK 000 138 40]	86.4%	75%	–	–
CCc1ccc(C2(O)CC(C(F)(F)F)=NN2C(=O)c2ccncc2)cc1 (centres unmarked) [IPK 000 134 51]	102%	90.2%	–	–
CCOc1ccc(NN=C(C#N)C#N)cc1 [IPK 000 170 72]	–	–	-29.5%	-21.3%
Cc1cccc(C(=O)NCCC(C)C)c1 [IPK 000 210 74]	20.2%	76.4%	–	–
CCCCS(=O)(=O)Nc1ccc(Cc2ccncc2)cc1 [IPK 000 249 12]	53.2%	23.6%	–	–

Structure (SMILES)	inhibition at 20 µM [1]	inhibition at 20 µM [2]	inhibition at 20 µM [3]	inhibition at 20 µM [4]
O=C(CSc1ccc(Nc2ccc(Cl)cc2)nn1)Nc1ccc(Cl)cc1 [IPK 000 200 16]	76.8%	73.3%	–	–
CC(=O)OC(OC(C)=O)c1ccc([N+](=O)[O-])s1 [IPK 000 155 36]	74%	67.8%	–	–
CC12CC3CC(C)(C1)CC(NC(=O)c1ccc(N4CCCC4)c([N+](=O)[O-])c1)(C3)C2 [IPK 000 230 02]	–	–	-7.7%	40.5%
Cc1ccc(-c2c(CN3CCCCC3)c(N)nc3ccccc23)cc1 [IPK 000 222 00]	86.2%	74.4%	–	–
CC1=NN(C(N)=S)C(=O)/C1=N/Nc1ccc(O)cc1 [IPK 000 171 84]	13.3%	-79.6%	–	–
CCOc1ccc(C(=O)/C=C/c2ccccc2F)cc1 [IPK 000 172 34]	12.5%	-82.4%	–	–
O=C(Nc1ccc(Cl)c(Cl)c1)c1ccco1 [IPK 000 048 49]	–	–	84.5%	92.9%
COc1cccc(C(O)c2cccs2)c1 (centres unmarked) [IPK 000 171 27]	95.2%	95.2%	–	–
O=C(Nc1ccc(Cl)c(Cl)c1)c1ccc(Cn2cc(Br)cn2)cc1 [IPK 000 180 17]	34.5%	63.2%	–	–
CCc1ccc(NC(=O)C23CC4CC(CC(C4)C2)C3)cc1 [IPK 000 228 46]	37.8%	22.5%	–	–
Cc1ccoc1/C=N/NC(=O)c1ccncc1 [IPK 000 193 76]	97.4%	81.4%	–	–
Nc1nc2ccccc2c(-c2cccc3ccccc23)c1CN1CC1 [IPK 000 222 04]	85.8%	65.4%	–	–
CCCCNC(=O)c1ccc2c(c1)OCO2 [IPK 000 208 53]	23.3%	71.6%	–	–
CCCC(=O)Nc1ccc(-c2csc(N/N=C/c3ccc(SC)cc3)n2)cc1 [IPK 000 163 51]	50%	89.4%	–	–
O=C1Nc2ccccc2/C1=C(\c1ccccc1)c1nc2ccccc2[nH]1 [IPK 000 259 35]	68.8%	66%	–	–
Cc1cc(OCC(=O)NN)ccc1Br [IPK 000 192 59]	81.1%	65.3%	–	–
CSc1ccc(/C=N/Nc2nc(-c3ccc(NC(=O)CCC(=O)O)cc3)cs2)cc1 [IPK 000 262 07]	7.9%	80.3%	–	–
